Source: US20250170090A1, “METHOD FOR PREVENTING OR TREATING DISEASE OR DISORDER ASSOCIATED WITH ANTINEOPLASTIC AGENT” (ONQUALITY PHARMACEUTICALS CHINA LTD., priority 2022, published 2025)
Read-outs that look alike come from different tables or passages of the source.

System: HUVEC cells
Experiment: CCK-8 cell viability: alleviation of proliferative toxicity of anti-tumor agents on HUVEC cells (Tables 7-1, 7-2)
Format: cell-based
Details: for activation at 100 µM: Homo sapiens, 24 h, percentage increase in viable cells vs anti-tumor agent alone, read-out: Response rate % (average)
Protocol: The cultured HUVEC cells were digested the suspended, counted, and seed into a 96-well plate with 5,000-10,000 cells per well. The wells are divided into the following groups: blank control group, anti-tumor agent group, anti-tumor agent+NO-NSAID group, anti-tumor agent solvent group, NO-NSAID control group. Wherein each well of each group contained a basic medium, and the final liquid volume contained in each well was about 100 μL. The grouping situation was as follows: • 1) Blank control group: no solution was added except normally replacing the medium; • 2) Anti-tumor agent group: added the anti-tumor agent solution (the final concentration was shown in Table 7-1 and Table 7-2, the solvent of the anti-tumor agent solution was DMSO); • 3) Anti-tumor agent+NO-NSAID group: added the anti-tumor agent solution and the NO-NSAID solution (the final concentrations of anti-tumor agent and NO-NSAID were shown in Table 7-1 and Table 7-2, and according to the solubility of NO-NSAID, the solvent of NO-NSAID solution was selected as ethanol or sterile water, and minor volume differences in each group were adjusted by added the corresponding solvent); • 4) Anti-tumor agent solvent group: an equal volume of DMSO as contained in the corresponding anti-tumor agent solution in Group 2) was added; • 5) NO-NSAID control group: the same volume and type of solvent (for example, ethanol or sterile water) corresponding to the NO-NSAID contained in group 3) was added.
The anti-tumor agent solvent group was not involved in data processing and was only used as a reference for evaluating experimental system error. The NO-NSAID solvent control group was used for data correction to eliminate the influence of the solvent on the results.
After culturing for 24-48 hours, the Cell Counting Kit-8 (CCK-8) detection kit (C0037, Shanghai Beyotime Biotechnology Co., Ltd., Beyotime Biotechnology) was used to determine the cell viability. This allows for the calculation of the proliferative toxicity of anti-tumor agent on cell and the mitigating effect of NO-NSAID on proliferative toxicity. The results were statistically analyzed and plotted using GraphPad Prism 6.0 software and t test.

[1] = Infigratinib (15 μM), NO-NSAID 100 μM
[2] = Lapatinib (5 μM), NO-NSAID 100 μM
[3] = Lenvatinib (10 μM), NO-NSAID 100 μM
[4] = Olmutinib (10 μM), NO-NSAID 100 μM
[5] = Regorafenib (5 μM), NO-NSAID 100 μM
[6] = Selumetinib (5 μM), NO-NSAID 100 μM
[7] = Sorafenib (5 μM), NO-NSAID 100 μM
[8] = Sunitinib (5 μM), NO-NSAID 100 μM

COc1ccc2cc(C(C)C(=O)OCCCCO[N+](=O)[O-])ccc2c1 (stereo not drawn) [Compound A5]
activation at 100 µM (Dacomitinib (5 μM), NO-NSAID 100 μM): 75% | activation at 100 µM (Encorafenib (5 μM), NO-NSAID 100 μM): 28% | activation at 100 µM (Erdafitinib (10 μM), NO-NSAID 100 μM): 43% | activation at 100 µM (Everolimus (5 μM), NO-NSAID 100 μM): 28% | activation at 100 µM (Famitinib (5 μM), NO-NSAID 100 μM): 35% | activation at 100 µM (Fruquintinib (10 μM), NO-NSAID 100 μM): 37% | activation at 100 µM (Gefitinib (10 μM), NO-NSAID 100 μM): 21% | activation at 100 µM [1]: 48% | activation at 100 µM [2]: 62% | activation at 100 µM [3]: 32% | activation at 100 µM [4]: 48% | activation at 100 µM [5]: 83% | activation at 100 µM [6]: 61% | activation at 100 µM [7]: 1% | activation at 100 µM [8]: 44% | activation at 100 µM (Vemurafenib (5 μM), NO-NSAID 100 μM): 24% | NO-NSAID response rate % (average) (Infigratinib (15 μM), NO-NSAID 0.1 μM): 28% | NO-NSAID response rate % (average) (Infigratinib (15 μM), NO-NSAID 1 μM): 30% | NO-NSAID response rate % (average) [1]: 48% | NO-NSAID response rate % (average) (Infigratinib (15 μM), NO-NSAID 500 μM): 34% | NO-NSAID response rate % (average) (Lapatinib (5 μM), NO-NSAID 0.1 μM): 26% | NO-NSAID response rate % (average) (Lapatinib (5 μM), NO-NSAID 1 μM): 35% | NO-NSAID response rate % (average) [2]: 62% | NO-NSAID response rate % (average) (Lapatinib (5 μM), NO-NSAID 500 μM): 36% | NO-NSAID response rate % (average) (Lenvatinib (10 μM), NO-NSAID 0.1 μM): 11% | NO-NSAID response rate % (average) (Lenvatinib (10 μM), NO-NSAID 1 μM): 44% | NO-NSAID response rate % (average) [3]: 32% | NO-NSAID response rate % (average) (Lenvatinib (10 μM), NO-NSAID 500 μM): 16% | NO-NSAID response rate % (average) (Olmutinib (10 μM), NO-NSAID 0.1 μM): 19% | NO-NSAID response rate % (average) (Olmutinib (10 μM), NO-NSAID 1 μM): 34% | NO-NSAID response rate % (average) [4]: 48% | NO-NSAID response rate % (average) (Olmutinib (10 μM), NO-NSAID 500 μM): 39% | NO-NSAID response rate % (average) (Regorafenib (5 μM), NO-NSAID 0.1 μM): 29% | NO-NSAID response rate % (average) (Regorafenib (5 μM), NO-NSAID 1 μM): 46% | NO-NSAID response rate % (average) [5]: 83% | NO-NSAID response rate % (average) (Regorafenib (5 μM), NO-NSAID 500 μM): 22% | NO-NSAID response rate % (average) (Selumetinib (5 μM), NO-NSAID 0.1 μM): 38% | NO-NSAID response rate % (average) (Selumetinib (5 μM), NO-NSAID 1 μM): 42% | NO-NSAID response rate % (average) [6]: 61% | NO-NSAID response rate % (average) (Selumetinib (5 μM), NO-NSAID 500 μM): 26% | NO-NSAID response rate % (average) (Sorafenib (5 μM), NO-NSAID 0.1 μM): 20% | NO-NSAID response rate % (average) (Sorafenib (5 μM), NO-NSAID 1 μM): 20% | NO-NSAID response rate % (average) [7]: 1% | NO-NSAID response rate % (average) (Sorafenib (5 μM), NO-NSAID 500 μM): 3% | NO-NSAID response rate % (average) (Sunitinib (5 μM), NO-NSAID 0.1 μM): 20% | NO-NSAID response rate % (average) (Sunitinib (5 μM), NO-NSAID 1 μM): 40% | NO-NSAID response rate % (average) [8]: 44% | NO-NSAID response rate % (average) (Sunitinib (5 μM), NO-NSAID 500 μM): 31%
